Reference: publication PMC7766758, “Furan-Conjugated Tripeptides as Potent Antitumor Drugs” (Biomolecules, 2020)
Converted amounts (≈) assume the structure as drawn. “Also recorded” adds a separate entry of the source. Where two headings read alike, the source gives them in different places. Square brackets hold non-standard residues; d marks the D form. Side chains are listed from the residue outwards. Peptide text beside a SMILES is read from it. * marks the point of attachment. 2Nal = N[C@@H](Cc1ccc2ccccc2c1)C(=O)O; 2Furoyl = O=C(c1ccco1)*

What was measured:
[1] = test system: human cervical cancer cells HeLa; assay: Anti-proliferative assay (MTT or resazurin), HeLa; format: cell-based; conditions: for IC50 ± SD (µg/mL), proliferation of HeLa cells / IC50: 48 h
Description: The anti-proliferative effect of peptides was tested using various normal and cancer cells. Human cancer cells used were human cervical cancer cells HeLa (ATCC® CCL-2), and human breast cancer cells MCF-7 (ATCC® HTB22) and MDA-MB-231 (ATCC® HTB-26). Normal cells used were NIH-3T3 (ATCC® CRL-1658), human normal endothelial cells (human umbilical vein endothelial cells, HUVEC) (ECACC, Sigma-Aldrich, Lyon, France), and human lung fibroblasts IMR-90 (ATCC® CCL186). NIH-3T3, HeLa, IMR-90, MDA-MB-231, and MCF-7 cells were grown in DMEM supplemented with 10% fetal bovine serum (FBS), 1% L-glutamine, and 1% antibiotics (all from Invitrogen (Carlsbad, CA, USA)). HUVEC cells were cultured in specific medium (endothelial cell growth medium from Sigma Aldrich, Lyon, France). Cells were routinely grown on 25 cm^2 flasks. For anti-proliferative assay, cells were detached from flasks using a trypsin-EDTA solution (from Thermofisher, Illkirch-Graffenstaden, France). After counting using a Malassez chamber, cells were diluted in appropriate culture media and seeded into 96-well cell culture plates (Greiner bio-one, Paris, France) at approximately 6000 cells/well. Cells were then treated with increasing concentration of conjugates diluted in appropriate medium. Doxorubicin was used as positive control. After 48 h medium was aspirated and the number of viable cells was colorimetrically measured as previously described. Briefly, after exposure to increasing concentrations of conjugates or doxorubicin for 48 h, cell viability was measured using the standard MTT or resazurin assay. For the MTT assay, the supernatant was discarded and 50 µL of 0.5 mg/mL MTT dye was then added to each well and plates were further incubated for 4 h at 37 °C. The MTT was aspirated and 100 µL of DMSO was then added to each well. The extent of MTT reduction to formazan in cells was calculated by measuring the absorbance at 540 nm, using a spectrophotometer (Spectra Max plus, Molecular Devices, CA, USA). For the resazurin assay, the supernatant was discarded and 100 µL of resazurin solution (from Sigma Aldrich, Lyon, France) was added to each well. After 4 h of incubation at 37 °C, fluorescence associated to resazurin biotransformation by live cells was measured using spectrofluorometer (excitation 530 nm/emission 590 nm). In both cases, the antiproliferative activity was recorded as concentration causing 50% growth inhibition (IC50). Experiment was performed in triplicate (n = 3).

HeLa cells [2] = assay: Rhodamine 123 and propidium iodide staining assay; format: cell-based, human
Description: As mentioned above, HeLa cells were grown in DMEM medium and seeded 3000 cells/well into 96-well plates. A stock solution of rhodamine 123 (Sigma-Aldrich, St Louis, MO, USA) and prodidium iodide (Sigma-Aldrich, St Louis, MO, USA) at concentrations of 10 and 1 mg/mL were prepared in pure DMSO and water, respectively.
The next day, 1 mL of the fresh media with 2% FBS was made, in which rhodamine 123 and propidium iodide dyes were added to make final concentrations of 10 and 5 µg/mL, respectively. Compounds 4, 4a, and 4b at four different concentrations (10, 20, 30, and 40 µg/mL) were mixed with 1 mL of this media. Old media from the plates were aspirated from each well and 200 µL of fresh media containing compounds, rhodamine 123, and PI dye were added in their respective wells in triplicate and incubated at 37 °C in a 5% CO2 incubator. After 1 and 2 h incubation, media was aspirated from the wells and washed with PBS. These cells were visualized for rhodamine 123 and PI dye staining in a Nikon Eclipse TE2000-U fluorescence microscope at 200× magnification in FITC and TXR filters respectively. Images of cells at the same location for both dyes were captured. Rhodamine 123 and PI staining give green and red fluorescence, respectively. These two different colored images were then merged with one another using ImageJ software (NIH, Bethesda, MD, USA).

[3] = test system: mice normal 3T3 fibroblasts cells
Description: (§1) The anti-proliferative effect of peptides was tested using various normal and cancer cells. […] Normal cells used were NIH-3T3 (ATCC® CRL-1658), human normal endothelial cells (human umbilical vein endothelial cells, HUVEC) (ECACC, Sigma-Aldrich, Lyon, France), and human lung fibroblasts IMR-90 (ATCC® CCL186). NIH-3T3, HeLa, IMR-90, MDA-MB-231, and MCF-7 cells were grown in DMEM supplemented with 10% fetal bovine serum (FBS), 1% L-glutamine, and 1% antibiotics (all from Invitrogen (Carlsbad, CA, USA)). HUVEC cells were cultured in specific medium (endothelial cell growth medium from Sigma Aldrich, Lyon, France). Cells were routinely grown on 25 cm^2 flasks. For anti-proliferative assay, cells were detached from flasks using a trypsin-EDTA solution (from Thermofisher, Illkirch-Graffenstaden, France). After counting using a Malassez chamber, cells were diluted in appropriate culture media and seeded into 96-well cell culture plates (Greiner bio-one, Paris, France) at approximately 6000 cells/well. Cells were then treated with increasing concentration of conjugates diluted in appropriate medium. Doxorubicin was used as positive control. […] Briefly, after exposure to increasing concentrations of conjugates or doxorubicin for 48 h, cell viability was measured using the standard MTT or resazurin assay. For the MTT assay, the supernatant was discarded and 50 µL of 0.5 mg/mL MTT dye was then added to each well and plates were further incubated for 4 h at 37 °C. The MTT was aspirated and 100 µL of DMSO was then added to each well. The extent of MTT reduction to formazan in cells was calculated by measuring the absorbance at 540 nm, using a spectrophotometer (Spectra Max plus, Molecular Devices, CA, USA). For the resazurin assay, the supernatant was discarded and 100 µL of resazurin solution (from Sigma Aldrich, Lyon, France) was added to each well. After 4 h of incubation at 37 °C, fluorescence associated to resazurin biotransformation by live cells was measured using spectrofluorometer (excitation 530 nm/emission 590 nm). […]

[4] = test system: human breast cancer cells MDA-MB-231; assay: Anti-proliferative assay, MDA-MB-231; format: cell-based
Description: Cells were routinely grown on 25 cm^2 flasks. […] Doxorubicin was used as positive control. […] Experiment was performed in triplicate (n = 3).

[5] = test system: human breast cancer cells MCF-7
Description: as §1

[6] = test system: IMR-90 (normal human fibroblasts)
Description: as §1

HeLa cells [7] = assay: Atomic force microscopy of HeLa cells; format: cell-based, human; conditions: 20 µg/mL, 24 h
Description: HeLa cells were grown in Dulbecco’s modified eagle medium (DMEM) supplemented with 10% fetal bovine serum. After 70–80% confluency was achieved, cells were treated with conjugate 4 at 20 µg/mL and incubated for 24 h at 37 °C in a 5% CO2 incubator. The next day, these cells were visualized using a microscope. In the untreated control, cells were healthy and attached, therefore, the cells were trypsinized to detach the cells from the wells, and then collected in a sterile Eppendorf tube. In conjugate 4 treated wells, cells were dead and detached. These dead cells were freely floating and therefore the cells were collected without using the trypsinization process in an Eppendorf tube. These cells collected in Eppendorf tubes were washed twice with sterile distilled water and then 10 µL of suspension was deposited into mica chips coated with 0.01% poly-L-lysine, to allow the cells attachment. This cell suspension was then dried at room temperature. Soon after, these mica chips were inserted inside an Agilent Technologies 5500 microscope and the chips were scanned at tapping mode with a silicon nitride cantilever. After finding cells in the chips, these cells were further scanned under a higher magnification. Atomic force microscopy (AFM) topography images were obtained, and we processed them in pseudo color images to differentiate the images according to the height. […]

[8] = test system: HUVEC (human umbilical vein endothelial cells)
Description: as §1

[9] = test system: mice normal 3T3 fibroblasts cells; assay: cells; conditions: Mus musculus, Fibroblast, 48 h, read-out: IC50 (µg/mL) 3T3
Description: as §1

[10] = test system: HUVEC (human umbilical vein endothelial cells); assay: cells; conditions: 48 h, read-out: IC50 (µg/mL) HUVEC
Description: as §1

[11] = test system: IMR-90 (normal human fibroblasts); assay: cells; conditions: IMR-90, 48 h, read-out: IC50 (µg/mL) IMR-90
Description: as §1

[12] = test system: human breast cancer cells MCF-7; assay: cells; conditions: MCF7, 48 h, read-out: IC50 (µg/mL) MCF-7
Description: as §1

[13] = HeLa cells, MTT or resazurin, triplicate
[14] = HeLa cells, MTT or resazurin, read-out: IC50 ± SD (µM), proliferation of HeLa cells

## C[C@H](NC(=O)[C@H](Cc1ccccc1)NC(=O)[C@H](Cc1ccc2ccccc2c1)NC(=O)c1ccco1)C(N)=O [Conjugate 2, 2-Fur^4-L-2-Nal^3-L-Phe^2-L-Ala^1-CONH2]
[1]; [13]
  IC50 ± SD (µg/mL), proliferation of HeLa cells: 4.40 ± 0.20 µg/mL
[1]; [14]
  IC50: 8.35 ± 0.37 µM

## C[C@H](NC(=O)[C@H](C)NC(=O)[C@H](Cc1ccc2ccccc2c1)NC(=O)c1ccco1)C(N)=O [Conjugate 3, 2-Fur^4-L-2-Nal^3-L-Ala^2-L-Ala^1-CONH2]
[1]; [13]
  IC50 ± SD (µg/mL), proliferation of HeLa cells: 21.1 ± 0.60 µg/mL
[1]; [14]
  IC50: 46.8 ± 1.33 µM

## C[C@H](NC(=O)[C@H](Cc1ccc2ccccc2c1)NC(=O)c1ccco1)C(=O)N[C@@H](Cc1ccccc1)C(N)=O [Conjugate 4, 2-Fur^4-L-2-Nal^3-L-Ala^2-L-Phe^1-CONH2]
[1]
  IC50: 0.28 ± 0.09 µM
  IC50 ± SD (µg/mL), proliferation of HeLa cells: 0.15 ± 0.05 µg/mL
HeLa cells [2]; HeLa, 40 µg/mL, 1 or 2 h treatment
  rhodamine 123 fluorescence (mitochondrial membrane potential, MMP): loss of mitochondrial membrane potential; also recorded: totally suppressed rhodamine fluorescence
HeLa cells [2]; HeLa, 20, 30 and 40 µg/mL, 1 or 2 h
  PI dye fluorescence (membrane permeabilization): increased
[3]; 3T3
  antiproliferative activity on 3T3 cells (in words): did not inhibit the proliferation
[3]; 3T3, 48 h, mean ± SD of triplicates
  IC50 (µg/mL) 3T3: >100 µg/mL
[4]
  antiproliferative activity on MDA-MB-231 (in words): did not inhibit the proliferation
[4]; MDA-MB-231, 48 h, mean ± SD of triplicates
  IC50 (µg/mL) MDA-MB-231: >100 µg/mL
[4]; listed as conjugate 4
  antiproliferative activity on MDA-MB-231 (in words): inactive; also recorded: no effect
[5]; MCF-7
  antiproliferative activity on MCF-7 (in words): did not inhibit the proliferation
[5]; MCF-7, 48 h, mean ± SD of triplicates
  IC50 (µg/mL) MCF-7: >100 µg/mL
[6]; IMR-90
  antiproliferative activity on IMR-90 (in words): did not inhibit the proliferation
[6]; IMR-90, 48 h, mean ± SD of triplicates
  IC50 (µg/mL) IMR-90: >100 µg/mL
HeLa cells [7]
  effect on HeLa cell membrane seen by AFM: membranolytic effect; also recorded: membranolytic affect
[8]
  antiproliferative activity on HUVEC (in words): did not inhibit the proliferation
[8]; 48 h, mean ± SD of triplicates
  IC50 (µg/mL) HUVEC: >100 µg/mL

## C[C@H](NC(=O)[C@H](Cc1ccc2ccccc2c1)NC(=O)c1ccco1)C(=O)N[C@@H](Cc1ccccc1)C(=O)NCCCC[C@H](NC(=O)[C@H](Cc1ccccc1)NC(=O)[C@H](C)NC(=O)[C@H](Cc1ccc2ccccc2c1)NC(=O)c1ccco1)C(N)=O [Conjugate 4b] (2Furoyl-[2Nal]AFK([Phe-Ala-2Nal-2Furoyl])-NH2)
[1]; HeLa cells
  antiproliferative activity against HeLa cells (in words): inactive
[1]; [13]
  IC50 ± SD (µg/mL), proliferation of HeLa cells: > 100 µg/mL
HeLa cells [2]; HeLa, data not shown
  effect on MMP or membrane integrity of HeLa cells (rhodamine 123 / PI): do not affect MMP or the membrane integrity

## C[C@H](NC(=O)[C@H](Cc1ccc2ccccc2c1)NC(=O)[C@H](Cc1ccc2ccccc2c1)NC(=O)c1ccco1)C(N)=O [Conjugate 5, 2-Fur^4-L-2-Nal^3-L-2-Nal^2-L-Ala^1-CONH2]
[1]; [13]
  IC50 ± SD (µg/mL), proliferation of HeLa cells: 2.59 ± 0.30 µg/mL
[1]; [14]
  IC50: 4.49 ± 0.52 µM

## C[C@H](NC(=O)[C@H](Cc1ccc2ccccc2c1)NC(=O)[C@H](Cc1ccccc1)NC(=O)c1ccco1)C(N)=O [Conjugate 6, 2-Fur^4-L-Phe^3-L-2-Nal^2-L-Ala^1-CONH2]
[1]; [13]
  IC50 ± SD (µg/mL), proliferation of HeLa cells: 10.4 ± 0.10 µg/mL
[1]; [14]
  IC50: 19.74 ± 0.18 µM

## C[C@H](NC(=O)c1ccco1)C(=O)N[C@@H](Cc1ccc2ccccc2c1)C(=O)N[C@@H](Cc1ccccc1)C(N)=O [Conjugate 7, 2-Fur^4-L-Ala^3-L-2-Nal^2-L-Phe^1-CONH2]
[1]; [13]
  IC50 ± SD (µg/mL), proliferation of HeLa cells: >100 µg/mL
[1]; [14]
  IC50: > 100 µM

## C[C@H](NC(=O)c1ccco1)C(=O)N[C@@H](Cc1ccccc1)C(=O)N[C@@H](Cc1ccc2ccccc2c1)C(N)=O [Conjugate 8, 2-Fur^4-L-Ala^3-L-Phe^2-L-2-Nal^1-CONH2]
[1]; [13]
  IC50 ± SD (µg/mL), proliferation of HeLa cells: 29.1 ± 2.8 µg/mL
[1]; [14]
  IC50: 55.3 ± 5.31 µM

## C[C@H](NC(=O)[C@H](Cc1ccc(O)cc1)NC(=O)[C@H](Cc1ccc2ccccc2c1)NC(=O)c1ccco1)C(N)=O [Conjugate 9, 2-Fur^4-L-2-Nal^3-L-Tyr^2-L-Ala^1-CONH2]
[1]; [13]
  IC50 ± SD (µg/mL), proliferation of HeLa cells: 19.2 ± 3.2 µg/mL
[1]; [14]
  IC50: 35.4 ± 5.89 µM

## C[C@H](NC(=O)[C@@H](NC(=O)[C@H](Cc1ccc2ccccc2c1)NC(=O)c1ccco1)c1ccccc1)C(N)=O [Conjugate 10, 2-Fur^4-L-2-Nal^3-L-Phg^2-L-Ala^1-CONH2]
[1]; [13]
  IC50 ± SD (µg/mL), proliferation of HeLa cells: 4.70 ± 0.60 µg/mL
[1]; [14]
  IC50: 9.16 ± 1.17 µM

## COc1cccc2c1C(=O)c1c(O)c3c(c(O)c1C2=O)C[C@@](O)(C(=O)CO)C[C@@H]3O[C@H]1C[C@H](N)[C@H](O)[C@H](C)O1 [Doxorubicin]
[1]; Homo sapiens, HeLa cells, MTT or resazurin, triplicate, read-out: IC50 ± SD (µg/mL), proliferation of HeLa cells
  IC50: 3.09 ± 0.16 µg/mL
[4]; Homo sapiens, MDA-MB-231, 48 h, mean ± SD of triplicates
  IC50: 0.21 ± 0.03 µg/mL (≈ 0.386 µM)
[9]
  IC50: < 1 µg/mL
[10]
  IC50: 0.02 ± 0.005 µg/mL (≈ 0.0368 µM)
[11]
  IC50: 0.06 ± 0.01 µg/mL (≈ 0.11 µM)
[12]
  IC50: 0.01 ± 0.005 µg/mL (≈ 0.0184 µM)
